In US8476253B2, “Amide derivative” (Daiichi Sankyo Company, Limited, priority 2009, dated 2013):
Counter-ions that a name gives are not always drawn. Like-named read-outs stand apart in the source and are kept apart here.

What was measured:
human M3 receptor = biological target: T1, human M3 receptor (Homo sapiens, UniProt P20309); test: Test for binding to human M3 receptor
T1 construct: expressed in transfected cells; host or cells: CHO cells
Outline: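 CHO-cell crude membranes expressing human M3 were incubated with [N-methyl-3H]-(−)-scopolamine methyl chloride in 50 mM Tris-HCl, 0.5 mM EDTA, pH 7.4, for 60 min at room temperature. Bound ligand was collected on PEI-pretreated glass-fibre filters and counted by liquid scintillation. Ki was calculated from IC50 and the radioligand Kd.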

neurokinin NK1 receptor = biological target: T2, neurokinin NK1 receptor (Cavia porcellus, UniProt P30547); test: Effect of suppressing substance P-induced airway contraction (in vivo, intratracheal administration); design: species or system guinea pig; settings: guinea pig; guinea pigs, intratracheal administration 60 minutes before 20 μg/kg i.v. SP; AUC of increase in airway pressure over 10 minutes; read-out: ID50 (the source's name)
T2 construct: Using healthy guinea pigs (body weight, 350 to 550 g; Hartley male guinea pigs); from tissue; host or cells: live anaesthetised Hartley male guinea pigs (airway, in vivo)
Outline: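 Anaesthetised, gallamine-paralysed, ventilated male Hartley guinea pigs; compound in 5% glucose given intratracheally 60 min before 20 μg/kg i.v. substance P. Airway-pressure increase AUC over 10 min, inhibition versus vehicle group, expressed as ID50.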

neurokinin NK2 receptor = biological target: T3, neurokinin NK2 receptor (Cavia porcellus, UniProt Q64077); test: Effect of suppressing neurokinin A-induced airway contraction (in vivo, intratracheal administration); design: species or system guinea pig; settings: guinea pig; guinea pigs, intratracheal administration 60 minutes before 4 μg/kg i.v. NKA; AUC of increase in airway pressure over 10 minutes; read-out: ID50 (the source's name)
T3 construct: Using healthy guinea pigs (body weight, 350 to 550 g; Hartley male guinea pigs); from tissue; host or cells: live anaesthetised Hartley male guinea pigs (airway, in vivo)
T3 sequence (Q64077 1-402): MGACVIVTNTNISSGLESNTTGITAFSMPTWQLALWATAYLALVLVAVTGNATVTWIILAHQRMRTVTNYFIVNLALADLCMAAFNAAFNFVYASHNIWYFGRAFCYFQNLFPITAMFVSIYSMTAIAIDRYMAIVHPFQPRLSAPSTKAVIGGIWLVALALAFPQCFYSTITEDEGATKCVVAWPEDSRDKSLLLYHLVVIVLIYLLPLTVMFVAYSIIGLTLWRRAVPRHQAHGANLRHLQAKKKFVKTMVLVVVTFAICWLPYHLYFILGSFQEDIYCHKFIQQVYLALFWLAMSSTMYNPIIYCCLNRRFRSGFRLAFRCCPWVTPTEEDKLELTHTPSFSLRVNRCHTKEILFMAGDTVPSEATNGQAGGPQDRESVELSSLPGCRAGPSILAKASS
Outline: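 Anesthetized, gallamine-paralysed, ventilated male Hartley guinea pigs received compound in 5% glucose intratracheally 60 minutes before 4 μg/kg NKA i.v. AUC of airway pressure increase over 10 minutes gave inhibition versus vehicle controls, expressed as ID50.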

[1] = CHO cells expressing human M3 receptor, [N-methyl-3H]-(-)-Scopolamine methyl chloride 0.5 nM, Ki from IC50 and Kd, read-out: Ki

T1 sequence (P20309 whole entry): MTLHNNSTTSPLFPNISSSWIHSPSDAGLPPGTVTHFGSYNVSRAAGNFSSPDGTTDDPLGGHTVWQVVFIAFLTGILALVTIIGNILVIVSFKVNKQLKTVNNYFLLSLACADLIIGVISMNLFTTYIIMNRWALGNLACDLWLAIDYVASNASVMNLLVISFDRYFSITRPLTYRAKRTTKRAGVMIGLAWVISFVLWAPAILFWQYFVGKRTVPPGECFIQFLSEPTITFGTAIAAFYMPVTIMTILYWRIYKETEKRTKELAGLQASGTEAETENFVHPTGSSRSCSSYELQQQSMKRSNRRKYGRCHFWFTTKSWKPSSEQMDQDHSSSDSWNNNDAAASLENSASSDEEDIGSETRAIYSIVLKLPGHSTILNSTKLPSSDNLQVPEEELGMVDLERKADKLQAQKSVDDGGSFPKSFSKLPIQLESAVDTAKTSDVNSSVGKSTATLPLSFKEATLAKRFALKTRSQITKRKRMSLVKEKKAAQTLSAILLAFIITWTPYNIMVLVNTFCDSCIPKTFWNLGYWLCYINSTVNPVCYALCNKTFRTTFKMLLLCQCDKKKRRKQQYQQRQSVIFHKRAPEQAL
T2 sequence (P30547 whole entry): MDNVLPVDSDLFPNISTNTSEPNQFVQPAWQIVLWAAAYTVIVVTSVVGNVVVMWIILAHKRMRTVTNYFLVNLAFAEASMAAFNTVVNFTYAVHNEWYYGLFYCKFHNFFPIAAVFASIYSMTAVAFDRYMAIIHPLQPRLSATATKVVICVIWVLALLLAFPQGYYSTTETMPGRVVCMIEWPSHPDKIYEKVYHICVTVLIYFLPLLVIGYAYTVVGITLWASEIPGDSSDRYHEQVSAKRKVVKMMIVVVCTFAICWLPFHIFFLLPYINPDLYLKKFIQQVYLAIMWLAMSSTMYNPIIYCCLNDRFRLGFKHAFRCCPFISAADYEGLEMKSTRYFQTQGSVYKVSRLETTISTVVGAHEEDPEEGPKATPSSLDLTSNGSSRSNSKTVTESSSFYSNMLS

| Compound | Ki (human M3 receptor) [nM] | ED50 (neurokinin NK1 receptor) [mg/kg] | ED50 (neurokinin NK2 receptor) [mg/kg] | Ki (human M3 receptor; [1]) [nM] |
| --- | --- | --- | --- | --- |
| CN(CCN1CCC(OC(=O)Nc2ccccc2-c2ccccc2)CC1)C(=O)CCCCCCN(C)c1ccc(C(=O)N(C)CCCN(C)C(=O)CO[C@H]2Cc3ccccc3C23CCN(CC[C@@]2(c4ccc(F)cc4)CN(C(=O)c4cc(C(F)(F)F)cc(C(F)(F)F)c4)CO2)CC3)cc1 [Example 40, 1-{2-[{7-[{4-[{3-[({[(2S)-1′-{2-[(5R)-3-[3,5-Bis(trifluoromethyl)benzoyl]-5-(4-fluorophenyl)-1,3-oxazolidin-5-yl]ethyl}-2,3-dihydrospiro[indene-1,4′-piperidin]-2-yl]oxy}acetyl)(methyl)amino]propyl}(methyl)carbamoyl]phenyl}(methyl)amino]heptanoyl}(methyl)amino]ethyl}piperidin-4-yl biphenyl-2-ylcarbamate trihydrochloride] | 2 | 0.0191 | 0.0573 | – |
| CN(CCN1CCC(OC(=O)Nc2ccccc2-c2ccccc2)CC1)C(=O)CCCCCNc1cccc(C(=O)N(C)CCCN(C)C(=O)CO[C@H]2Cc3ccccc3C23CCN(CC[C@@]2(c4ccc(F)cc4)CN(C(=O)c4cc(C(F)(F)F)cc(C(F)(F)F)c4)CO2)CC3)c1 [Example 43, 1-(2-{[6-({3-[{3-[({[(2S)-1′-{2-[(5R)-3-[3,5-Bis(trifluoromethyl)benzoyl]-5-(4-fluorophenyl)-1,3-oxazolidin-5-yl]ethyl}-2,3-dihydrospiro[indene-1,4′-piperidin]-2-yl]oxy}acetyl)(methyl)amino]propyl}(methyl)carbamoyl]phenyl}amino)hexanoyl](methyl)amino}ethyl)piperidin-4-yl biphenyl-2-ylcarbamate trihydrochloride] | 2.6 | 0.0766 | 0.0241 | – |
| CN(CCN1CCC(OC(=O)Nc2ccccc2-c2ccccc2)CC1)C(=O)CCCCCNc1ccc(C(=O)N(CCCN(C)C(=O)CO[C@H]2Cc3ccccc3C23CCN(CC[C@@]2(c4ccc(F)cc4)CN(C(=O)c4cc(C(F)(F)F)cc(C(F)(F)F)c4)CO2)CC3)C2CC2)cc1 [Example 25, 1-(2-{[6-({4-[{3-[({[(2S)-1′-{2-[(5R)-3-[3,5-Bis(trifluoromethyl)benzoyl]-5-(4-fluorophenyl)-1,3-oxazolidin-5-yl]ethyl}-2,3-dihydrospiro[indene-1,4′-piperidin]-2-yl]oxy}acetyl)(methyl)amino]propyl}(cyclopropyl)carbamoyl]phenyl}amino)hexanoyl](methyl)amino}ethyl)piperidin-4-yl biphenyl-2-ylcarbamate trihydrochloride] | 1.4 | 0.0437 | 0.0727 | – |
| CN(CCN1CCC(OC(=O)Nc2ccccc2-c2ccccc2)CC1)C(=O)CCCCCNc1ccc(N(C)C(=O)CCCN(C)C(=O)CO[C@H]2Cc3ccccc3C23CCN(CC[C@@]2(c4ccc(F)cc4)CN(C(=O)c4cc(C(F)(F)F)cc(C(F)(F)F)c4)CO2)CC3)cc1 [Example 84, 1-(2-{[6-({4-[{-4-[({[(2S)-1′-{2-[(5R)-3-[3,5-Bis(trifluoromethyl)benzoyl]-5-(4-fluorophenyl)-1,3-oxazolidin-5-yl]ethyl}-2,3-dihydrospiro[indene-1,4′-piperidin]-2-yl]oxy}acetyl)(methyl)amino]butanoyl}(methyl)amino]phenyl}amino)hexanoyl](methyl)amino}ethyl)piperidin-4-yl biphenyl-2-ylcarbamate trihydrochloride] | 1.2 | 0.0357 | 0.0221 | – |
| CN(CCN1CCC(OC(=O)Nc2ccccc2-c2ccccc2)CC1)C(=O)COCCCNc1ccc(C(=O)N(C)CCCN(C)C(=O)CO[C@H]2Cc3ccccc3C23CCN(CC[C@@]2(c4ccc(F)cc4)CN(C(=O)c4cc(C(F)(F)F)cc(C(F)(F)F)c4)CO2)CC3)cc1 [Example 27, 1-{2-[{[3-({4-[{3-[({[(2S)-1′-{2-[(5R)-3-[3,5-Bis(trifluoromethyl)benzoyl]-5-(4-fluorophenyl)-1,3-oxazolidin-5-yl]ethyl}-2,3-dihydrospiro[indene-1,4′-piperidin]-2-yl]oxy}acetyl)(methyl)amino]propyl}(methyl)carbamoyl]phenyl}amino)propoxy]acetyl}(methyl)amino]ethyl}piperidin-4-yl biphenyl-2-ylcarbamate trihydrochloride] | 1.4 | 0.0229 | 0.0135 | – |
| CN(CCN1CCC(OC(=O)Nc2ccccc2-c2ccccc2)CC1)C(=O)CCN(C)c1ccc(C(=O)N(C)CCCN(C)C(=O)CO[C@H]2Cc3ccccc3C23CCN(CC[C@@]2(c4ccc(F)cc4)CN(C(=O)c4cc(C(F)(F)F)cc(C(F)(F)F)c4)CO2)CC3)cc1 [Example 95, 1-{2-[(N-{4-[{3-[({[(2S)-1′-{2-[(5R)-3-[3,5-Bis(trifluoromethyl)benzoyl]-5-(4-fluorophenyl)-1,3-oxazolidin-5-yl]ethyl}-2,3-dihydrospiro[indene-1,4′-piperidin]-2-yl]oxy}acetyl)(methy)amino]propyl}(methyl)carbamoyl]phenyl}-N-methyl-β-alanyl)(methyl)amino]ethyl}piperidin-4-yl biphenyl-2-ylcarbamate] | – | 0.0225 | 0.039 | 2.1 |
| Cc1nc(NCCCCCC(=O)N(C)CCN2CCC(OC(=O)Nc3ccccc3-c3ccccc3)CC2)sc1C(=O)N(C)CCCN(C)C(=O)CO[C@H]1Cc2ccccc2C12CCN(CC[C@@]1(c3ccc(F)cc3)CN(C(=O)c3cc(C(F)(F)F)cc(C(F)(F)F)c3)CO1)CC2 [Example 105, 1-(2-{[6-({5-[{3-[({[(2S)-1′-{2-[(5R)-3-[3,5-Bis(trifluoromethyl)benzoyl]-5-(4-fluorophenyl)-1,3-oxazolidin-5-yl]ethyl}-2,3-dihydrospiro[indene-1,4′-piperidin]-2-yl]oxy}acetyl)(methyl)amino]propyl}(methyl)carbamoyl]-4-methyl-1,3-thiazol-2-yl}amino)hexanoyl](methyl)amino}ethyl)piperidin-4-yl biphenyl-2-ylcarbamate trihydrochloride] | 1.4 | 0.0273 | 0.0136 | – |
| CN(CCCCCC(=O)N(C)CCN1CCC(OC(=O)Nc2ccccc2-c2ccccc2)CC1)Cc1ccc(C(=O)N(C)CCCN(C)C(=O)CO[C@H]2Cc3ccccc3C23CCN(CC[C@@]2(c4ccc(F)cc4)CN(C(=O)c4cc(C(F)(F)F)cc(C(F)(F)F)c4)CO2)CC3)cc1 [Example 74, 1-{2-[{6-[{4-[{3-[({[(2S)-1′-{2-[(5R)-3-[3,5-Bis(trifluoromethyl)benzoyl]-5-(4-fluorophenyl)-1,3-oxazolidin-5-yl]ethyl}-2,3-dihydrospiro[indene-1,4′-piperidin]-2-yl]oxy}acetyl)(methyl)amino]propyl}(methyl)carbamoyl]benzyl}(methyl)amino]hexanoyl}(methyl)amino]ethyl}piperidin-4-yl biphenyl-2-ylcarbamate] | – | 0.0174 | 0.0127 | 0.32 |
| CN(CCN1CCC(OC(=O)Nc2ccccc2-c2ccccc2)CC1)C(=O)CCCCCNc1ccc(C(=O)N(C)CCCN(C)C(=O)CO[C@H]2Cc3ccccc3C23CCN(CC[C@@]2(c4ccc(F)cc4)CN(C(=O)c4cc(C(F)(F)F)cc(C(F)(F)F)c4)CO2)CC3)nc1 [Example 9, 1-(2-{[6-({6-[{3-[({[(2S)-1′-{2-[(5R)-3-[3,5-Bis(trifluoromethyl)benzoyl]-5-(4-fluorophenyl)-1,3-oxazolidin-5-yl]ethyl}-2,3-dihydrospiro[indene-1,4′-piperidin]-2-yl]oxy}acetyl)(methyl)amino]propyl}(methyl)carbamoyl]pyridin-3-yl}amino)hexanoyl](methyl)amino}ethyl)piperidin-4-yl biphenyl-2-ylcarbamate] | – | 0.0348 | 0.0374 | 1.3 |
| CN(CCN1CCC(OC(=O)Nc2ccccc2-c2ccccc2)CC1)C(=O)CCCCCNc1ccc(C(=O)N(C)CCN(C)C(=O)CO[C@H]2Cc3ccccc3C23CCN(CC[C@@]2(c4ccc(F)cc4)CN(C(=O)c4cc(C(F)(F)F)cc(C(F)(F)F)c4)CO2)CC3)cc1 [Example 16, 1-(2-{[6-({4-[{2-[({[(2S)-1′-{2-[(5R)-3-[3,5-Bis(trifluoromethyl)benzoyl]-5-(4-fluorophenyl)-1,3-oxazolidin-5-yl]ethyl}-2,3-dihydrospiro[indene-1,4′-piperidin]-2-yl]oxy}acetyl)(methyl)amino]ethyl}(methyl)carbamoyl]phenyl}amino)hexanoyl](methyl)amino}ethyl)piperidin-4-yl biphenyl-2-ylcarbamate trihydrochloride] | 2.4 | 0.016 | 0.0286 | – |
